From paper PMC8691691 (ACS Chemical Neuroscience, 2021) come the findings set out here.

One may read the IC50 as the midpoint of a concentration-inhibition curve.

In one experiment the target is T1, GlyT2 F478Y mutant (Rattus norvegicus, UniProt P58295, F478Y).
T1 construct: expressed in transfected cells; host or cells: COS7
T1 sequence (P58295 1-799 F478Y): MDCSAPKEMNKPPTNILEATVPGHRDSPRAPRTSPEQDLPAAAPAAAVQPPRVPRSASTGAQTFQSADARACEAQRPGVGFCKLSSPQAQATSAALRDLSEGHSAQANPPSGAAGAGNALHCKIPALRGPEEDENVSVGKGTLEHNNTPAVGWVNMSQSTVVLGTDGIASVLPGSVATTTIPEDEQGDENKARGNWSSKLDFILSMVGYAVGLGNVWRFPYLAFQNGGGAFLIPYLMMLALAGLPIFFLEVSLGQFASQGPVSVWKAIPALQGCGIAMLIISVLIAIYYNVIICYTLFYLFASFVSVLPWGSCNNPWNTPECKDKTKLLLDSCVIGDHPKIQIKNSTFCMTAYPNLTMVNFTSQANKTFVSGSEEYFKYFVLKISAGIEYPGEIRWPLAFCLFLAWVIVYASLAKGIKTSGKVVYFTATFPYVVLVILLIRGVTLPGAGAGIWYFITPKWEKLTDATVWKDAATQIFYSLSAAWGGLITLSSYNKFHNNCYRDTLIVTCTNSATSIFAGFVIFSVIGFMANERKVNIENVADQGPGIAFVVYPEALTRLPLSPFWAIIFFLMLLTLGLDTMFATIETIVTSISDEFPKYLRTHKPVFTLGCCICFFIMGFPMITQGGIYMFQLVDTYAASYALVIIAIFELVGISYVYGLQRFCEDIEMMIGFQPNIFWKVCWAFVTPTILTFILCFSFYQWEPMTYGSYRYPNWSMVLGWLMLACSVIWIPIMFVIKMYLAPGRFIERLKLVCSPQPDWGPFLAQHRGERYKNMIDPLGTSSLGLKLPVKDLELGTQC
The experiment in a line: [3H]glycine transport by GlyT2 mutant in COS7 cells. The format is cell-based. The source says: To validate the predicted interactions between the inhibitors and GlyT2, we used systematic site-directed mutagenesis to construct substitution mutants of the potential residues involved in ligand binding. […] The GlyT2 residues predicted to interact with the inhibitors through its side chain were replaced by amino acids expected to force the loss of the interaction. In the cases where the interaction occurred through the backbone, the inserted amino acid sought to alter the disposition of the substituted residue to lose the coordination.
Substitution mutants were generated with the QuikChange II Site-Directed Mutagenesis kit (Agilent Technologies, Santa Clara, CA, USA), using rGlyT2 or rGlyT1 subcloned in pCDNA3.[47] The complete coding region of all of the constructs was sequenced to verify that only the desired mutation had been introduced. […] COS7 cells were grown and transfected using Turbofect Transfection Reagent (Thermo Fisher Scientific, Waltham, MA, USA), following the manufacturer’s protocol (2 μL reagent/μg of DNA). Cells were incubated for 48 h at 37 °C until used.
At the end of the desired time (usually 10 min), reactions were washed and terminated by aspiration. […] A nonlinear curve fitting method was used to obtain IC50 values using Graphpad Prism software, version 6.0, Graphpad, San Diego, CA, USA.

Another experiment concerns the target T2, GlyT2 A223C mutant (Rattus norvegicus, UniProt P58295, A223C).
T2 construct: expressed in transfected cells; host or cells: COS7
T2 sequence (P58295 1-799 A223C): T1 sequence (P58295 1-799 F478Y) with A223C, Y478F
The experiment in a line: MTSEA-biotin labeling of A223C mutant in NaCl or choline chloride, COS7 cells. In kind it is cell-based. To be noted: 1 μM inhibitor; HBS containing NaCl or choline chloride. The source says: Several pieces of evidence were obtained to confirm this prediction (Figure 7). […] A second piece of evidence came from experiments using the […] mutant of GlyT2 that contains an exogenous cysteine in EL1, a region sensitive to the different conformations of the transporter induced by the substrates during the transport cycle.[44] […] Then, the cells were washed and subjected to MTSEA-biotin staining as described above.

Substitutions are numbered along the chain they refer to. Where two headings read alike, the source gives them in different places.

Take `COc1cc(C(=O)NCC2(N(C)C)CCCC2)cc(OC)c1OCc1ccccc1` [ORG25543, N-[[1-(dimethylamino)cyclopentyl]methyl]-3,5-dimethoxy-4-(phenylmethoxy)benzamide]: on GlyT2 F478Y mutant, the IC50 came out at 19 ± 7 nM. Also, the “MTSEA-biotin labeling of A223C, sodium dependence” value on GlyT2 A223C mutant is reported as “protects the labeling independently of the cation present in the buffer”.
`N[C@@H](COC(c1cccc(F)c1)c1ccccc1OCc1ccccc1)C(=O)O` (stereo partly shown) [ALX1393]: the IC50 on GlyT2 F478Y mutant (read-out: IC50 (Table S1)) amounted to 50 ± 5 nM. Further, the “MTSEA-biotin labeling of A223C, sodium dependence” value on GlyT2 A223C mutant is on record as “abolished the label in NaCl but left it intact in choline chloride”.
